Test results reported in ChEMBL document CHEMBL1641455, “Discovery of novel ureas and thioureas of 3-decladinosyl-3-hydroxy 15-membered azalides active against efflux-mediated resistant Streptococcus pneumoniae” (2011).
In brackets after ≈: the same amount, converted by molar mass.

Legend:
Format in all cases: functional
Streptococcus pyogenes [1] = experiment: Antimicrobial activity against erythromycin-susceptible Streptococcus pyogenes after 16 to 22 hrs by broth microdilution method
Enterococcus faecalis = experiment: Antimicrobial activity against Enterococcus faecalis ATCC 29212 after 16 to 22 hrs by broth microdilution method
Escherichia coli = experiment: Antimicrobial activity against Escherichia coli ATCC 25922 after 16 to 22 hrs by broth microdilution method
Staphylococcus aureus = experiment: Antimicrobial activity against Staphylococcus aureus ATCC 29213 after 16 to 22 hrs by broth microdilution method
Haemophilus influenzae = experiment: Antimicrobial activity against Haemophilus influenzae ATCC 49247 after 16 to 22 hrs by broth microdilution method
Moraxella catarrhalis = experiment: Antimicrobial activity against Moraxella catarrhalis ATCC 23246 after 16 to 22 hrs by broth microdilution method
Streptococcus pneumoniae [2] = experiment: Antimicrobial activity against macrolide-resistant erythromycin-Streptococcus pneumoniae after 16 to 22 hrs by broth microdilution method
Streptococcus pyogenes [3] = experiment: Antimicrobial activity against macrolide-resistant erythromycin-Streptococcus pyogenes after 16 to 22 hrs by broth microdilution method
Streptococcus pneumoniae [4] = experiment: Antimicrobial activity against erythromycin-susceptible Streptococcus pneumoniae after 16 to 22 hrs by broth microdilution method
[5] = Streptococcus pyogenes, read-out: MIC
[6] = Escherichia coli, ATCC 25922, read-out: MIC
[7] = Staphylococcus aureus, ATCC 29213, read-out: MIC
[8] = Haemophilus influenzae, ATCC 49247, read-out: MIC
[9] = Streptococcus pneumoniae, read-out: MIC

Row | Structure (SMILES) | MIC (Streptococcus pyogenes [1]; [5]) | MIC (Enterococcus faecalis) | MIC (Escherichia coli; [6]) | MIC (Staphylococcus aureus; [7]) | MIC (Haemophilus influenzae; [8]) | MIC (Moraxella catarrhalis) | MIC (Streptococcus pneumoniae [2]; [9]) | MIC (Streptococcus pyogenes [3]; [5]) | MIC (Streptococcus pneumoniae [4]; [9]) | MIC (Streptococcus pyogenes [3]) | MIC (Escherichia coli) | MIC (Staphylococcus aureus) | MIC (Haemophilus influenzae) | MIC (Streptococcus pneumoniae [2]) | MIC (Streptococcus pneumoniae [4]) | MIC (Streptococcus pyogenes [1])
1 | CC[C@H]1OC(=O)[C@H](C)[C@@H](O)[C@H](C)[C@@H](O[C@@H]2O[C@H](C)C[C@H](N(C)C)[C@H]2O)[C@](C)(O)C[C@@H](C)CN(CCCN(CCC#N)C(=S)NCc2ccccc2)[C@H](C)[C@@H](O)[C@]1(C)O | > 64 µg/mL | > 64 µg/mL | > 64 µg/mL | > 64 µg/mL | 8 µg/mL (≈ 9.57 µM) | 2 µg/mL (≈ 2.39 µM) | 16 µg/mL (≈ 19.1 µM) | – | – | – | – | – | – | – | – | –
2 | CC[C@H]1OC(=O)[C@H](C)[C@@H](O)[C@H](C)[C@@H](O[C@@H]2O[C@H](C)C[C@H](N(C)C)[C@H]2O)[C@](C)(O)C[C@@H](C)CN(CCCN(CCC#N)C(=O)Nc2cccc3ccccc23)[C@H](C)[C@@H](O)[C@]1(C)O | 16 µg/mL (≈ 18.7 µM) | > 64 µg/mL | 64 µg/mL (≈ 74.8 µM) | > 64 µg/mL | 32 µg/mL (≈ 37.4 µM) | 8 µg/mL (≈ 9.34 µM) | 64 µg/mL (≈ 74.8 µM) | 64 µg/mL (≈ 74.8 µM) | 16 µg/mL (≈ 18.7 µM) | – | – | – | – | – | – | –
3 | CC[C@H]1OC(=O)[C@H](C)[C@@H](O)[C@H](C)[C@@H](O[C@@H]2O[C@H](C)C[C@H](N(C)C)[C@H]2O)[C@](C)(O)C[C@@H](C)CN(CCCNC(=O)Nc2cccc3ccccc23)[C@H](C)[C@@H](O)[C@]1(C)O | 2 µg/mL (≈ 2.49 µM) | 32 µg/mL (≈ 39.8 µM) | 8 µg/mL (≈ 9.96 µM) | > 64 µg/mL | 2 µg/mL (≈ 2.49 µM) | 2 µg/mL (≈ 2.49 µM) | 8 µg/mL (≈ 9.96 µM) | 16 µg/mL (≈ 19.9 µM) | 1 µg/mL (≈ 1.25 µM) | – | – | – | – | – | – | –
4 | CC[C@H]1OC(=O)[C@H](C)[C@@H](O)[C@H](C)[C@@H](O[C@@H]2O[C@H](C)C[C@H](N(C)C)[C@H]2O)[C@](C)(O)C[C@@H](C)CN(CCCNC(=S)Nc2cccc3ccccc23)[C@H](C)[C@@H](O)[C@]1(C)O | 8 µg/mL (≈ 9.77 µM) | 32 µg/mL (≈ 39.1 µM) | 16 µg/mL (≈ 19.5 µM) | > 64 µg/mL | 4 µg/mL (≈ 4.88 µM) | 0.5 µg/mL (≈ 0.61 µM) | 2 µg/mL (≈ 2.44 µM) | 64 µg/mL (≈ 78.1 µM) | 1 µg/mL (≈ 1.22 µM) | – | – | – | – | – | – | –
5 | CC[C@H]1OC(=O)[C@H](C)[C@@H](O)[C@H](C)[C@@H](O[C@@H]2O[C@H](C)C[C@H](N(C)C)[C@H]2O)[C@](C)(O)C[C@@H](C)CN(CCCN(CCC#N)C(=O)Nc2ccc3ccccc3c2)[C@H](C)[C@@H](O)[C@]1(C)O | 8 µg/mL (≈ 9.34 µM) | 32 µg/mL (≈ 37.4 µM) | 16 µg/mL (≈ 18.7 µM) | > 64 µg/mL | 2 µg/mL (≈ 2.34 µM) | 2 µg/mL (≈ 2.34 µM) | 4 µg/mL (≈ 4.67 µM) | 16 µg/mL (≈ 18.7 µM) | – | – | – | – | – | – | – | –
6 | CC[C@H]1OC(=O)[C@H](C)[C@@H](O[C@H]2C[C@@](C)(OC)[C@@H](O)[C@H](C)O2)[C@H](C)[C@@H](O[C@@H]2O[C@H](C)C[C@H](N(C)C)[C@H]2O)[C@](C)(O)C[C@@H](C)CN(C)[C@H](C)[C@@H](O)[C@]1(C)O (stereo in doubt; 1) [AZITHROMYCIN] | – | 8 µg/mL (≈ 10.7 µM) | – | – | – | < 0.125 µg/mL | – | – | – | 4 µg/mL (≈ 5.34 µM) | 2 µg/mL (≈ 2.67 µM) | 0.5 µg/mL (≈ 0.668 µM) | 1 µg/mL (≈ 1.34 µM) | 8 µg/mL (≈ 10.7 µM) | – | –
7 | CC[C@H]1OC(=O)[C@H](C)[C@@H](O)[C@H](C)[C@@H](O[C@@H]2O[C@H](C)C[C@H](N(C)C)[C@H]2O)[C@](C)(O)C[C@@H](C)CN(CCCNC(=O)NC(C)c2cccc3ccccc23)[C@H](C)[C@@H](O)[C@]1(C)O (mixture of isomers) | < 0.125 µg/mL | 8 µg/mL | 16 µg/mL | 16 µg/mL | 4 µg/mL | 4 µg/mL | 16 µg/mL | 16 µg/mL | < 0.125 µg/mL | – | – | – | – | – | – | –
8 | CC[C@H]1OC(=O)[C@H](C)[C@@H](O)[C@H](C)[C@@H](O[C@@H]2O[C@H](C)C[C@H](N(C)C)[C@H]2O)[C@](C)(O)C[C@@H](C)CN(CCCN(CCC#N)C(=O)Nc2ccc(Cl)cc2Cl)[C@H](C)[C@@H](O)[C@]1(C)O | > 64 µg/mL | > 64 µg/mL | > 64 µg/mL | > 64 µg/mL | 16 µg/mL (≈ 18.3 µM) | 8 µg/mL (≈ 9.14 µM) | 8 µg/mL (≈ 9.14 µM) | – | – | – | – | – | – | – | – | –
9 | CC[C@H]1OC(=O)[C@H](C)[C@@H](O)[C@H](C)[C@@H](O[C@@H]2O[C@H](C)C[C@H](N(C)C)[C@H]2O)[C@](C)(O)C[C@@H](C)CN(CCCN(CCC#N)C(=S)NCCc2ccccc2)[C@H](C)[C@@H](O)[C@]1(C)O | > 64 µg/mL | > 64 µg/mL | > 64 µg/mL | > 64 µg/mL | 32 µg/mL (≈ 37.6 µM) | 8 µg/mL (≈ 9.41 µM) | 16 µg/mL (≈ 18.8 µM) | – | – | – | – | – | – | – | – | –
10 | CC[C@H]1OC(=O)[C@H](C)[C@@H](O)[C@H](C)[C@@H](O[C@@H]2O[C@H](C)C[C@H](N(C)C)[C@H]2O)[C@](C)(O)C[C@@H](C)CN(CCCNC(=S)NCCc2ccccc2)[C@H](C)[C@@H](O)[C@]1(C)O | 32 µg/mL (≈ 40.1 µM) | 64 µg/mL (≈ 80.3 µM) | 64 µg/mL (≈ 80.3 µM) | > 64 µg/mL | 16 µg/mL (≈ 20.1 µM) | 4 µg/mL (≈ 5.02 µM) | 16 µg/mL (≈ 20.1 µM) | 64 µg/mL (≈ 80.3 µM) | 4 µg/mL (≈ 5.02 µM) | – | – | – | – | – | – | –
11 | CC[C@H]1OC(=O)[C@H](C)[C@@H](O)[C@H](C)[C@@H](O[C@@H]2O[C@H](C)C[C@H](N(C)C)[C@H]2O)[C@](C)(O)C[C@@H](C)CN(CCCN(CCC#N)C(=O)NC(C)c2cccc3ccccc23)[C@H](C)[C@@H](O)[C@]1(C)O (mixture of isomers) | 4 µg/mL | 64 µg/mL | > 64 µg/mL | > 64 µg/mL | 16 µg/mL | 4 µg/mL | 8 µg/mL | > 64 µg/mL | 4 µg/mL | – | – | – | – | – | – | –
12 | CC[C@H]1OC(=O)[C@H](C)[C@@H](O)[C@H](C)[C@@H](O[C@@H]2O[C@H](C)C[C@H](N(C)C)[C@H]2O)[C@](C)(O)C[C@@H](C)CN(CCCN(CCC#N)C(=S)NCCCc2ccccc2)[C@H](C)[C@@H](O)[C@]1(C)O | 32 µg/mL (≈ 37 µM) | > 64 µg/mL | > 64 µg/mL | > 64 µg/mL | 8 µg/mL (≈ 9.26 µM) | 8 µg/mL (≈ 9.26 µM) | 16 µg/mL (≈ 18.5 µM) | 64 µg/mL (≈ 74.1 µM) | – | – | – | – | – | – | – | –
13 | CC[C@H]1OC(=O)[C@H](C)[C@@H](O[C@H]2C[C@@](C)(OC)[C@@H](O)[C@H](C)O2)[C@H](C)[C@@H](O[C@@H]2O[C@H](C)C[C@H](N(C)C)[C@H]2O)[C@](C)(O)C[C@@H](C)CN(C)[C@H](C)[C@@H](O)[C@]1(C)O (stereo in doubt; 2) [AZITHROMYCIN] | – | – | – | – | – | – | – | – | – | >64 µg/mL | 16 µg/mL (≈ 21.4 µM) | >64 µg/mL | 16 µg/mL (≈ 21.4 µM) | >64 µg/mL | >64 µg/mL | >64 µg/mL
